{"source": "ChEMBL document CHEMBL1201862", "about": "“PubChem BioAssay data set” (2004)", "key": {"[1]": {"biological_target": "T1, Corticotropin-releasing factor receptor 2/Corticotropin-releasing factor-binding protein (Homo sapiens, UniProt P24387+Q13324)", "T1 sequence (Q13324 whole entry)": "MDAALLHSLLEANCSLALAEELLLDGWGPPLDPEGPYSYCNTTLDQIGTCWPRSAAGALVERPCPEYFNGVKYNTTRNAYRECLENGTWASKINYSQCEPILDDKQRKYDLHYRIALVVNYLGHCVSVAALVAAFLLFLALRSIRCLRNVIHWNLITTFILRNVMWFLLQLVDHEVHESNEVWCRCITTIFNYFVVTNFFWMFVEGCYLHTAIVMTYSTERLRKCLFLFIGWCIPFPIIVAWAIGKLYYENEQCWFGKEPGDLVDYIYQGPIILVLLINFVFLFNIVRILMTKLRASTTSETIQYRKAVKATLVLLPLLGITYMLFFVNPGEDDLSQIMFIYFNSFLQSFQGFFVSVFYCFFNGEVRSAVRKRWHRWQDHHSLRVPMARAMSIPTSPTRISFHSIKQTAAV", "T1 sequence (P24387 whole entry)": "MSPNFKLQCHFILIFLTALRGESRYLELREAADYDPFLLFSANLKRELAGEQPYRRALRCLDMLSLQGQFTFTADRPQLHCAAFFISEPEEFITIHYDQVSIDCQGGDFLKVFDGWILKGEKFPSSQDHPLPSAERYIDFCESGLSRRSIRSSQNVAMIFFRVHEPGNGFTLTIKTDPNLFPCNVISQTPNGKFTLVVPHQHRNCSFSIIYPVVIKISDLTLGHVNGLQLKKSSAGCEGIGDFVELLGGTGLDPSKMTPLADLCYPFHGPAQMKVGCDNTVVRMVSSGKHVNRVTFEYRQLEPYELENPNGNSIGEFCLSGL", "assay": "Dose Response confirmation of uHTS hits for small molecule antagonists of the CRF-binding protein and CRF-R2 receptor complex.", "assay_type": "functional", "settings": "read-out: IC50_Mean"}, "[2]": {"biological_target": "T1, Corticotropin-releasing factor receptor 2/Corticotropin-releasing factor-binding protein", "assay": "activators of CRF receptor 2 with binding protein – uHTS hits, confirmation (AID 602473)", "assay_type": "functional", "settings": "read-out: EC50_Mean"}, "[3]": {"assay": "Shn3 3'UTR reporter inhibitors, dose response, cell-based, Clone20 osteoblasts, firefly luciferase, cherry-picked (AID 624132)", "assay_type": "functional"}, "[4]": {"assay": "HepG2 cell cytotoxicity, dose response, cytotoxicity control for Shn3 inhibitor project, CellTiter-Glo, cherry-picked (AID 624134)", "assay_type": "functional, cell-based"}, "[5]": {"assay": "control 3'UTR Renilla luciferase suppression, dose response, counter-screen for Shn3 inhibitor project, cell-based, Clone20-Shn3RL, cherry-picked (AID 624133)", "assay_type": "functional"}, "[6]": {"biological_target": "T2, Polyadenylate-binding protein 1 (Homo sapiens, UniProt P11940)", "T2 sequence (P11940 whole entry)": "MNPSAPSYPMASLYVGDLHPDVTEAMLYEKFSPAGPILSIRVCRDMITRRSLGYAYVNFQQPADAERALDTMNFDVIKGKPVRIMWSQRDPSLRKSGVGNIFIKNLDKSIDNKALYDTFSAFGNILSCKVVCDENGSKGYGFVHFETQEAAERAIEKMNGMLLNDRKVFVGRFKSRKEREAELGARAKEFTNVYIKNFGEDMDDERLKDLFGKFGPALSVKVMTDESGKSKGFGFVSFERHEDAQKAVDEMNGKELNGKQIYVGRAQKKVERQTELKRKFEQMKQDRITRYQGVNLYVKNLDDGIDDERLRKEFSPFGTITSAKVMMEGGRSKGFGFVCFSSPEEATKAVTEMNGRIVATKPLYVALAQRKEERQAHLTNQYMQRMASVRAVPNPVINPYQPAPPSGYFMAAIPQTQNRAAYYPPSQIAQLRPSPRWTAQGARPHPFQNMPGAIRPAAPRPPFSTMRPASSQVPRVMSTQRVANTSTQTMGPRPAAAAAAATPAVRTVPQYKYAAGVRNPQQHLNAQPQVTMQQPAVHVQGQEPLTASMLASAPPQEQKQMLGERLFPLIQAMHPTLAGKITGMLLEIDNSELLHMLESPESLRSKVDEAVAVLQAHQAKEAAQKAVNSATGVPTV", "assay": "PABP1 MLLE–PAM2 interaction inhibitors, dose response, miRNA deadenylation inhibitor project, biochemical, fluorescence polarization, Cy5-PAM2 peptide, secondary (AID 602260)", "assay_type": "functional", "settings": "read-out: IC50_Mean"}, "[7]": {"biological_target": "T2, Polyadenylate-binding protein 1", "assay": "PABP1 MLLE–PAM2 binding inhibitor potency, dose response, biochemical, fluorescence polarization, FITC-PAM2 peptide (AID 602259)", "assay_type": "functional", "settings": "read-out: IC50_Mean"}, "[8]": {"assay": "NIH-3T3 fibroblast cytotoxicity, dose response, cytotoxicity control, cell-based, fluorescence, Alamar Blue, secondary assay (AID 2327);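 also: NIH-3T3 mouse fibroblasts cultured with fluconazole at 8 µg/mL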", "assay_type": "functional"}, "[9]": {"assay": "C. albicans growth with fluconazole, confirmation, fluorescence, retest (AID 2467)", "assay_type": "functional, cell-based"}, "[10]": {"biological_target": "T3, Heat shock factor protein 1 (Mus musculus, UniProt P38532)", "T3 sequence (P38532 whole entry)": "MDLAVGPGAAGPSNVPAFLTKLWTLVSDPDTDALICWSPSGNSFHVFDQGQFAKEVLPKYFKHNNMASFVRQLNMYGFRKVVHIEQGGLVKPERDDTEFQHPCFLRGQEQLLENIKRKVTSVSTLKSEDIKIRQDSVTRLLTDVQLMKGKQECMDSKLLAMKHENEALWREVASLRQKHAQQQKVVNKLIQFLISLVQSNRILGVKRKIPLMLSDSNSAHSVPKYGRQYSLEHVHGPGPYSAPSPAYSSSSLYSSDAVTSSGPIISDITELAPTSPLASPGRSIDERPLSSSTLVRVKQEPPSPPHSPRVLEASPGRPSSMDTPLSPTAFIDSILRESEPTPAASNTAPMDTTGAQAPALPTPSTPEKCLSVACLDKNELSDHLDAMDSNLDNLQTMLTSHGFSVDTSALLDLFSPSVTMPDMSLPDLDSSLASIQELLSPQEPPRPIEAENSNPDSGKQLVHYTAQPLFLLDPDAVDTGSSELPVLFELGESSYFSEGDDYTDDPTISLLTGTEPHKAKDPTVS", "assay": "HSF1 potentiators in luciferase reporter cells, confirmation, cell-based, NIH3T3, luminescence, dose retest (AID 435004);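 also: stress induced by proteasome inhibitor MG132 added 30 min after compound; actives raise luminescence as potentiators of the MG132 stress response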", "assay_type": "functional"}, "[11]": {"system": "Streptococcus sp. 'group A'", "assay": "growth inhibition of control SK(-) GAS strain, dose response, counter-screen for streptokinase expression inhibitor project, luminescence, kanamycin, BacTiterGlo, confirmation (AID 1900)", "assay_type": "functional, organism-based"}, "Streptokinase A": {"biological_target": "T4, Streptokinase A (Streptococcus pyogenes serotype M1, UniProt P10520)", "T4 sequence (P10520 whole entry)": "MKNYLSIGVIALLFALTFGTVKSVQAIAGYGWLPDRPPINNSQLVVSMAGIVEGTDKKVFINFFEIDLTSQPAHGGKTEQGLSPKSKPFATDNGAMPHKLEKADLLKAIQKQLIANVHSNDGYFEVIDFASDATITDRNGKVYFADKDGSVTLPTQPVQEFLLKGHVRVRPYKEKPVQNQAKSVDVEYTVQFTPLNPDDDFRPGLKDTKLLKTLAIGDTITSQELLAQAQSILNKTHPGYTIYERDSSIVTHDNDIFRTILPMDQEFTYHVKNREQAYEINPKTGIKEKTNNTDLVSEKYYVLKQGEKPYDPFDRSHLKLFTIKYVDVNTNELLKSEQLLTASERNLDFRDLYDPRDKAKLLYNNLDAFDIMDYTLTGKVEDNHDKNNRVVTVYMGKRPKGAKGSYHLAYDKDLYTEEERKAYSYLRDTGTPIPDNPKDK", "assay": "S. pyogenes streptokinase expression inhibitors, potency, dose response, plasminogen activation absorbance, OD405 (AID 1914);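 also: secreted streptokinase activity via plasminogen activation per viability signal from cell pellet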", "assay_type": "functional, Streptococcus pyogenes M1 GAS"}, "Streptococcus": {"system": "Streptococcus", "assay": "Group A Streptococcus viability loss, dose response, counter-screen for streptokinase expression inhibitor project, luminescence, BacTiterGlo (AID 1915);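 also: potency for reduction of bacterial viability or growth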", "assay_type": "functional, organism-based"}}, "note": "Active and inactive are the calls of the source.", "data": [{"smiles": "Cc1cccc(N2CCN(S(=O)(=O)c3ccc(Cl)nc3)CC2C)c1", "note": "(stereo unspecified)", "values": [{"measurement": "IC50", "setting": "[1]", "result": "> 47.1 µM (inactive)"}, {"measurement": "EC50", "setting": "[2]", "result": "> 53 µM (inactive)"}]}, {"smiles": "O=[N+]([O-])c1cc2c(c(CSc3nnc(Nc4ccccc4)s3)c1)OCOC2", "values": [{"measurement": "AC50", "setting": "[3]", "result": "3.62 µM (active)"}, {"measurement": "AC50", "setting": "[4]", "result": "55.6 µM (active)"}, {"measurement": "AC50", "setting": "[5]", "result": "9.43 µM (active)"}]}, {"smiles": "COc1ccc2sc(-c3ccc(S(C)(=O)=O)cc3)c(C(=O)NCCc3c[nH]c4ccccc34)c2c1", "values": [{"measurement": "IC50", "setting": "[1]", "result": "> 47.1 µM (inactive)"}, {"measurement": "EC50", "setting": "[2]", "result": "> 53 µM (inactive)"}]}, {"smiles": "Cc1cc(C)n(N=C(S)NC2CCCCC2)c(=O)c1C#N", "values": [{"measurement": "IC50", "setting": "[6]", "result": "> 66 µM (inactive)"}, {"measurement": "IC50", "setting": "[7]", "result": "> 66 µM (inactive)"}]}, {"smiles": "CC1(C)CC(=O)C2=C(C1)N(Cc1ccco1)C(=O)C2(O)C(F)(F)F", "note": "(stereo unspecified)", "values": [{"measurement": "IC50", "setting": "[1]", "result": "> 47.1 µM (inactive)"}, {"measurement": "EC50", "setting": "[2]", "result": "> 53 µM (inactive)"}]}, {"smiles": "Cc1ccc(C(=O)NC(=S)Nc2cccc(-c3nc4ccccc4s3)c2)cc1", "values": [{"measurement": "IC50", "setting": "[6]", "result": "> 66 µM (inactive)"}, {"measurement": "IC50", "setting": "[7]", "result": "> 66 µM (inactive)"}]}, {"smiles": "Cc1ccc2nc(N3C(=O)C(O)=C(C(=O)c4ccco4)C3c3cccc(O)c3)sc2c1", "note": "(stereo unspecified)", "values": [{"measurement": "IC50", "setting": "[1]", "result": "< 0.368 µM (active)"}, {"measurement": "EC50", "setting": "[2]", "result": "> 53 µM (inactive)"}]}, {"smiles": "C=CCN1C(=O)NC(=O)/C(=C(/CC)Nc2ccccc2NC(=O)CC)C1=O", "values": [{"measurement": "IC50", "setting": "[1]", "result": "> 47.1 µM (inactive)"}, {"measurement": "EC50", "setting": "[2]", "result": "> 53 µM (inactive)"}]}, {"smiles": "COC(=O)CC(NC(=O)c1ccc(C)cc1)c1ccc2c(c1)OCO2", "note": "(stereo unspecified)", "values": [{"measurement": "IC50", "setting": "[1]", "result": "> 47.1 µM (inactive)"}, {"measurement": "EC50", "setting": "[2]", "result": "> 53 µM (inactive)"}]}, {"smiles": "O=C(NCc1cccnc1)c1ccc(-c2ccc(F)c(F)c2)c2ccoc12", "values": [{"measurement": "AC50", "setting": "[3]", "result": "3.48 µM (active)"}, {"measurement": "AC50", "setting": "[4]", "result": "6.48 µM (active)"}, {"measurement": "AC50", "setting": "[5]", "result": "4.19 µM (active)"}]}, {"smiles": "O=C(N/N=C/c1cc(Br)c(Br)o1)c1ccc2c(c1)OCCO2", "values": [{"measurement": "EC50", "setting": "[8]", "result": "> 150 µM (inconclusive)"}, {"measurement": "EC50", "setting": "[9]", "result": "3.24 µM (active)"}]}, {"smiles": "Cn1cc([N+](=O)[O-])c(C(=O)Nc2ccc(-c3nc4ccccc4[nH]3)cc2)n1", "values": [{"measurement": "EC50", "setting": "[10]", "result": "32 µM (active)"}]}, {"smiles": "Oc1ccnc2c(Cl)cccc12", "values": [{"measurement": "IC50", "setting": "[1]", "result": "> 47.1 µM (inactive)"}, {"measurement": "EC50", "setting": "[2]", "result": "> 53 µM (inactive)"}]}, {"smiles": "COc1ccc(CCNC(=O)COc2ccc(N(C)S(=O)(=O)c3ccc(C)cc3)cc2)cc1OC", "values": [{"measurement": "IC50", "setting": "[1]", "result": "> 47.1 µM (inactive)"}, {"measurement": "EC50", "setting": "[2]", "result": "> 53 µM (inactive)"}]}, {"smiles": "COc1ccc(-c2cn3cc(C)ccc3n2)cc1OC", "values": [{"measurement": "EC50", "setting": "[10]", "result": "> 260 µM (inactive)"}]}, {"smiles": "Cc1csc(NC(=O)c2c(O)c3c(n(CC(C)C)c2=O)CCCC3)n1", "values": [{"measurement": "EC50", "setting": "[11]", "result": "11 µM (active)"}, {"measurement": "EC50", "setting": "Streptokinase A", "result": "> 150 µM (not active)"}, {"measurement": "EC50", "setting": "Streptococcus", "result": "17.3 µM (active)"}]}, {"smiles": "COc1ccc2nc(N3C(=O)CNC3=S)sc2c1", "values": [{"measurement": "EC50", "setting": "[11]", "result": "3.47 µM (active)"}, {"measurement": "EC50", "setting": "Streptokinase A", "result": "> 150 µM (not active)"}, {"measurement": "EC50", "setting": "Streptococcus", "result": "> 150 µM (not active)"}]}]}
